Measured values as given in patent US6384085B1, “Material separated from Ecklonia cava, method for extracting and purifying the same, and use thereof as antioxidants” (Ventree Co., Ltd., priority 2000, dated 2002).

What was measured:
[1] = Antioxidative activity: DPPH radical scavenging activity according to the Blois method; assay type: biochemical; conditions: 10 min reaction, absorbance at 517 nm
Procedure: (§1) The antioxidative activity of the novel compound obtained through the extraction and purification process is evaluated by measuring its radical scavenging activity against 1,1-diphenyl-2-picrylhydrazyl (DPPH), which has free radicals attached thereto, according to the Blois method. A thermal stability of the compound of interest can be evaluated by measuring its antioxidative activity at plural temperature points.
(§2) Dicaval C obtained in Example 3 was measured for antioxidative activity according to the Blois method. For this, an examination was made of the radical scavenging activity of the compound against 1,1-diphenyl-2-picrylhydrazyl (DPPH) to which free radicals were attached. First, 20 mg of DPPH was dissolved in 150 ml of ethanol to prepare a DPPH solution. To 600 μl of the DPPH solution was added 250 μl of dimethylsulfoxide (DMSO), diluted with an appropriate amount of ethanol and shaken for 10 seconds, after which this control was adjusted, in absorbance at 517 nm, from 0.94 to 0.97. To 1 ml of the DPPH solution which was adjusted from 0.94 to 0.97 likewise, each of the samples (μg to mg) was added and then, reacted for 10 min, followed by measuring the absorbance of the solution. The antioxidative activity of each of the samples was determined by the DPPH radical scavenging activity which was represented by a reduced absorbance compared with that of the control.

[2] = Thermal stability: antioxidative activity (DPPH) after heating for 1 hour; assay type: physicochemical
Procedure: as §1, §2
50 μg of Dicaval C obtained in Example 3 was heated at 40° C., 60° C., 80° C., and 100° C. for 1 hour to measure antioxidative activity.

[3] = 50 μg heated at 40 °C for 1 hour
[4] = 50 μg heated at 60 °C for 1 hour
[5] = 50 μg heated at 80 °C for 1 hour
[6] = 50 μg heated at 190 °C [sic] for 1 hour

| Antioxidativity (Absorb. change) [2, 3] | Notes (thermal stability) [2, 3] | Antioxidativity (Absorb. change) [2, 4] | Notes (thermal stability) [2, 4] | Antioxidativity (Absorb. change) [2, 5] | Notes (thermal stability) [2, 5] | Antioxidativity (Absorb. change) [2, 6] | Notes (thermal stability) [2, 6] | Compound | DPPH radical scavenging activity (antioxidative activity) ([1]; sample amount 10 μg) [%] | DPPH radical scavenging activity (antioxidative activity) ([1]; sample amount 20 μg) [%] | DPPH radical scavenging activity (antioxidative activity) ([1]; sample amount 100 μg) [%] |
| --- | --- | --- | --- | --- | --- | --- | --- | --- | --- | --- | --- |
| 0.87 | Stable | 0.86 | Stable | 0.89 | Stable | 0.88 | Stable | Oc1cc(O)cc(Oc2cc(O)c(O)c3c2Oc2c(O)cc(O)cc2O3)c1 [Dicaval C] | 82 | 100 | 100 |
|  |  |  |  |  |  |  |  | O=C1O[C@H]([C@@H](O)CO)C(O)=C1O [Ascorbic acid, reference compound] | 100 | 100 | 100 |
